From PMC8472378, “Desferrioxamine B-Mediated Pre-Clinical In Vivo Imaging of Infection by the Mold Fungus Aspergillus fumigatus” (Journal of Fungi, 2021)

What was measured:
A. fumigatus = conditions: cited from earlier work
[1] = tested on: A. fumigatus mutant strain (∆sidA/∆ftrA); experiment: Siderophore utilization via growth promotion on solid minimal medium; type: cell-based, Aspergillus fumigatus; conditions: 0.1 µM iron-loaded siderophore, 48 h at 37 °C
Method: Growth assays were performed on solid Aspergillus minimal medium (AMM), as described above, solidified with 1.8% (w/v) agar. The pH was adjusted with NaOH, and the medium was supplemented with the respective siderophore. The agar plates were point-inoculated with 10^4 spores per dot of ∆sidA∆ftrA [10] and incubated at 37 °C for 48 h.

[2] = tested on: A. fumigatus strain Afs77; experiment: Short-term siderophore uptake analysis; type: cell-based, Aspergillus fumigatus; conditions: for uptake efficacy compared to [68Ga]Ga-DFO-E: 45 min at 37 °C
Method: Short-term uptake of siderophore-complexed ^68Ga was analyzed as described previously. A. fumigatus strain Afs77 [25] was grown for 18 h at 37 °C in 100 mL Aspergillus minimal medium (AMM) according to Pontecorvo et. al. with 1% (w/v) glucose as the carbon source and 20 mM glutamine as the nitrogen source, using iron-free trace elements to induce iron limiting for the transcriptional activation of siderophore uptake. To generate iron-replete mycelia for the transcriptional downregulation of siderophore uptake, the growth medium contained an additional 0.03 mM FeSO4. For the analysis of the pH-dependent siderophore uptake, the pH of the fungal culture medium was adjusted with HCl (1 M) and NaOH (1 M) immediately before the uptake analyses. Uptake assays were performed with 180 µL of liquid A. fumigatus culture added to a prewetted 96-well MultiScreen Filter Plates HTS (1 μm glass fiber filter, Merck Millipore, Darmstadt, Germany). Then, 50 µL of radioactive labelled siderophores (~100 nM) were added to the culture and incubated for 45 min at 37 °C. After washing two times with ice-cold TRIS buffer, the dried filters were measured in a γ-counter.

Escherichia coli = tested on: Escherichia coli; set-up: method as in PMID 22172389, PMID 32734456; conditions: cited from earlier work
Staphylococcus aureus = conditions: cited from earlier work
[3] = set-up: method as in PMID 32734456; conditions: healthy mice; cited from earlier work
[4] = tested on: pulmonary A. fumigatus infection; experiment: Ex vivo biodistribution in A. fumigatus-infected rats; set-up: species or system rat; conditions: 45 min p.i.; for radioactivity accumulation in non-infected organs (blood, spleen, pancreas, liver, heart and muscle) / route of excretion / uptake in the infected lungs as compared with radiolabeled DFO-B in the same rat: infected rats; for uptake in the infected lungs as compared with radiolabeled DFO-B in the same rat: co-injection
Method: (§1) A previously described rat model of pulmonary aspergillosis was used for the in vivo experiments. The introduction of A. fumigatus spores into animals, injection of radiolabeled siderophores and small animal imaging were carried out under 2% isoflurane anesthesia (FORANE, Abbott Laboratories, Abbott Park, IL, USA) to minimize animal suffering and prevent animal motion. Infection in the lung of immunodeficient rats was established by intratracheal inoculation of 100 μL of A. fumigatus spores (10^9 CFU/mL A. fumigatus ATCC 46645; American Type Culture Collection) using the TELE PACK VET X LED system equipped with a flexible endoscope (https://www.karlstorz.com/cps/rde/xbcr/karlstorz_assets/ASSETS/3386919.pdf, accessed on 20 August 2021; Karl Storz GmbH & Co. KG, Tuttlingen, Germany). Depending on the development of the infection, experimental animals underwent an ex vivo biodistribution study or PET/CT imaging, typically 2–4 days after inoculation.
A. fumigatus-infected rats were retro-orbitally (r.o.) injected with [^67Ga]- and [^68Ga]Ga-DFO-B and DFO-E. One infected rat (rat 1) was injected with [^68Ga]Ga-DFO-B and [^67Ga]Ga-DFO-E, while the second rat (rat 2) was […] with [^67Ga]Ga-DFO-B and [^68Ga]Ga-DFO-E (~0.5 MBq and ~0.5 µg of each DFO-B and DFO-E per rat). Rats were sacrificed by exsanguination 45 min post-injection (p.i.). Organs and tissues of interest (blood, spleen, pancreas, kidneys, liver, heart, muscle and lung) were removed and weighed. The amount of radioactivity in the samples was measured in a γ-counter (2480 Wizard-2; Perkin Elmer, Waltham, MA, USA). First, a short-lived ^68Ga was measured immediately after organ removal in the 511 ± 100 keV energy window, and ^67Ga was measured after 24 h in the 185 ± 100 keV energy window. The results are expressed as percentage of injected dose per gram of organ (%ID/g).

[5] = set-up: method as in PMID 32734456; conditions: cited from earlier work
Pseudomonas aeruginosa = conditions: cited from earlier work
[6] = tested on: pulmonary A. fumigatus infection; experiment: PET/CT imaging in rat model of pulmonary aspergillosis; type: in vivo, Lewis rats; conditions: A. fumigatus-infected rats, r.o. injection
Method: as §1
µPET/CT images were acquired with an Albira PET/SPECT/CT small animal imaging system (Bruker Biospin Corporation, Woodbridge, CT, USA). […] After reconstruction, acquired data were viewed, analyzed and processed using the appropriate software (PMOD software, PMOD Technologies Ltd., Zurich, Switzerland and VolView software, Kitware, Clifton Park, NY, USA).

Streptococcus agalactiae = tested on: Streptococcus agalactiae; set-up: method as in PMID 22172389, PMID 32734456; conditions: cited from earlier work
Klebsiella pneumoniae = conditions: cited from earlier work
[7] = non-infected rats; cited from earlier work
[8] = set-up: method as in PMID 32734456; conditions: cited from earlier work; remark: listed apart in the source
R. oryzae = tested on: R. oryzae; set-up: method as in PMID 23818006; conditions: cited from earlier work
Aspergillus flavus = tested on: Aspergillus flavus; set-up: method as in PMID 23818006; conditions: cited from earlier work
Fusarium solani = tested on: Fusarium solani; set-up: method as in PMID 23818006; conditions: cited from earlier work
Aspergillus terreus = tested on: Aspergillus terreus; set-up: method as in PMID 23818006; conditions: cited from earlier work
Candida albicans = tested on: Candida albicans; set-up: method as in PMID 23818006; conditions: cited from earlier work
Rhizopus arrhizus = tested on: Rhizopus arrhizus; set-up: method as in PMID 23818006; conditions: cited from earlier work
Mycobacterium smegmatis = tested on: Mycobacterium smegmatis; set-up: method as in PMID 23818006; conditions: cited from earlier work
[9] = infected rat 1 (injected with [68Ga]Ga-DFO-B and [67Ga]Ga-DFO-E)
[10] = infected rat 2 (injected with [67Ga]Ga-DFO-B and [68Ga]Ga-DFO-E)

CC(=O)N(O)CCCCCNC(=O)CCC(=O)N(O)CCCCCNC(=O)CCC(=O)N(O)CCCCCN [DFO-B, desferrioxamine B]
in vitro uptake compared to the TAFC and DFO-E metal complexes (A. fumigatus): significantly lower in vitro uptake

O=C1CCC(=O)N([O-])CCCCCNC(=O)CCC(=O)N([O-])CCCCCNC(=O)CCC(=O)N([O-])CCCCCN1.[Fe+3] [Fe-DFO-E]
growth promotion activity ([1]; pH 5 (acidic)): promoted the growth
growth promotion activity ([1]; pH 7 (neutral)): promoted the growth
growth promotion activity ([1]; pH 9 (alkaline)): promoted the growth

CC(=O)N([O-])CCCCCNC(=O)CCC(=O)N([O-])CCCCCNC(=O)CCC(=O)N([O-])CCCCCNC(=O)CCC(=O)O.[68Ga+3] [[^68Ga]Ga-DFO-B^suc]
uptake efficacy (in words) ([2]; pH 9, 45 min at 37 °C): highly decreased uptake efficacy

CC(=O)N([O-])CCCCCNC(=O)CCC(=O)N([O-])CCCCCNC(=O)CCC(=O)N([O-])CCCCCN.[68Ga+3] [[^68Ga]Ga-DFO-B]
in vitro uptake (Escherichia coli): lack significant uptake
in vitro uptake (Staphylococcus aureus): uptake was found
renal excretion [3]: rapid renal excretion
retention in the blood and other organs [3]: minimal retention
ratio of activity in lung vs. blood [4, 9]: about 17
ratio of activity in lung vs. blood [4, 10]: ~8
radioactivity accumulation in non-infected organs (blood, spleen, pancreas, liver, heart and muscle) [4]: low radioactivity accumulation
route of excretion [4]: primary excretion via kidneys
stability in human serum and PBS [5]: high stability
in vitro uptake (Pseudomonas aeruginosa): uptake was found
elimination of unbound tracer ([6]; PET/CT 45 min p.i.): rapidly eliminated via the renal system
PET/CT imaging of the infected area in the lungs ([6]; static PET/CT 45 min p.i.): clear depiction of the infected area in the lungs
uptake efficacy compared to [68Ga]Ga-DFO-E ([2]; pH 5, iron-limited culture): approximately 20%
uptake efficacy compared to [68Ga]Ga-DFO-E ([2]; pH 7, iron-limited culture): about 50%
uptake efficacy compared to [68Ga]Ga-DFO-E ([2]; pH 9, iron-limited culture): ~80%
in vitro uptake (Streptococcus agalactiae): uptake was found
in vitro uptake (A. fumigatus): uptake was found
in vitro uptake (Klebsiella pneumoniae): lack significant uptake
accumulation in the lungs [7]: negligible accumulation
ratio of 68Ga activity in lung vs. blood [7]: 0.84
protein binding [8]: low protein binding

CC(=O)N([O-])CCCCCNC(=O)CCC(=O)N([O-])CCCCCNC(=O)CCC(=O)N([O-])CCCCCN.[67Ga+3] [[^67Ga]Ga-DFO-B]
radioactivity accumulation in non-infected organs (blood, spleen, pancreas, liver, heart and muscle) [4]: low radioactivity accumulation
route of excretion [4]: primary excretion via kidneys

O=C1CCC(=O)N([O-])CCCCCNC(=O)CCC(=O)N([O-])CCCCCNC(=O)CCC(=O)N([O-])CCCCCN1.[68Ga+3] [[^68Ga]Ga-DFO-E]
in vitro uptake (Staphylococcus aureus): considerable uptake
in vitro uptake (R. oryzae): considerable uptake
ratio of activity in lung vs. blood [4, 9]: about 17
ratio of activity in lung vs. blood [4, 10]: ~8
radioactivity accumulation in non-infected organs (blood, spleen, pancreas, liver, heart and muscle) [4]: low radioactivity accumulation
route of excretion [4]: primary excretion via kidneys
uptake in the infected lungs as compared with radiolabeled DFO-B in the same rat [4]: only slightly higher uptake
in vitro uptake (Aspergillus flavus): considerable uptake
in vitro uptake (A. fumigatus): highest uptake
in vitro uptake (Fusarium solani): considerable uptake
in vitro uptake (Aspergillus terreus): considerable uptake
accumulation in the lungs [7]: negligible accumulation
ratio of 68Ga activity in lung vs. blood [7]: 0.79

CC(=O)N[C@H]1CCCN2[O][Ga]3[O]N(CCC[C@H](NC(C)=O)C(=O)OCC/C(C)=C/C(=O)N(CCC[C@H](NC(C)=O)C(=O)OCC/C(C)=C/C2=O)[O]3)C(=O)/C=C(\C)CCOC1=O [[^68Ga]Ga-TAFC]
in vitro uptake (Staphylococcus aureus): no significant uptake
in vitro uptake (Candida albicans): no significant uptake
in vitro uptake (Pseudomonas aeruginosa): no significant uptake
in vitro uptake (Rhizopus arrhizus): uptake
in vitro uptake (Aspergillus flavus): no significant uptake
in vitro uptake (Mycobacterium smegmatis): no significant uptake
in vitro uptake (A. fumigatus): uptake
in vitro uptake (Klebsiella pneumoniae): no significant uptake
in vitro uptake (Aspergillus terreus): no significant uptake

O=C1CCC(=O)N([O-])CCCCCNC(=O)CCC(=O)N([O-])CCCCCNC(=O)CCC(=O)N([O-])CCCCCN1.[67Ga+3] [[^67Ga]Ga-DFO-E]
radioactivity accumulation in non-infected organs (blood, spleen, pancreas, liver, heart and muscle) [4]: low radioactivity accumulation
route of excretion [4]: primary excretion via kidneys
uptake in the infected lungs as compared with radiolabeled DFO-B in the same rat [4]: only slightly higher uptake

CC(=O)N([O-])CCCCCNC(=O)CCC(=O)N([O-])CCCCCNC(=O)CCC(=O)N([O-])CCCCCNC(=O)CCC(=O)O.[Fe+3] [Fe-DFO-B^suc]
growth promotion activity ([1]; pH 9 (alkaline)): lowest growth promotion activity

CC(=O)N([O-])CCCCCNC(=O)CCC(=O)N([O-])CCCCCNC(=O)CCC(=O)N([O-])CCCCCN.[Fe+3] [Fe-DFO-B]
growth promotion activity ([1]; pH 5 (acidic), listed as Fe-DFO-B^ac): rescued the growth promotion
growth promotion activity ([1]; pH 7 (neutral)): promoted growth
growth promotion activity ([1]; pH 9 (alkaline)): promoted growth
